Results as given in ChEMBL document CHEMBL1201862, “PubChem BioAssay data set” (2004).
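Assay format: 96-well plates, 48-hour exposure. Abbreviation: GI50, concentration required for 50% inhibition of growth.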 Active and inactive are the calls of the source. Rule as the data show it: active = GI50 up to about 1.1 µM and inactive = higher.

Key:
Test in all cases: NCI anticancer screen, dose series, 48 h
[1] = test system: SK-OV-3
[2] = test system: SN12C
[3] = test system: NCI-H226
[4] = test system: KM12
[5] = test system: ACHN
[6] = test system: NCI-H522
[7] = test system: SNB-19
[8] = test system: NCI/ADR-RES
[9] = test system: HCT-116
[10] = test system: SK-MEL-5
[11] = test system: HOP-92
[12] = test system: HT-29
[13] = test system: A549
[14] = test system: SF-539
[15] = test system: T47D
[16] = test system: RPMI-8226
[17] = test system: UO-31
[18] = test system: SK-MEL-2
[19] = test system: NCI-H23
[20] = test system: HCT-15
[21] = test system: MOLT-4
[22] = test system: OVCAR-4
[23] = test system: SF-268
[24] = test system: BT-549
[25] = test system: DU-145
[26] = test system: NCI-H460
[27] = test system: PC-3
[28] = test system: UACC-62
[29] = test system: SF-295
[30] = test system: M14
[31] = test system: TK-10
[32] = test system: COLO 205
[33] = test system: SNB-75
[34] = test system: MCF7
[35] = test system: OVCAR-8
[36] = test system: IGROV-1
[37] = test system: CAKI-1
[38] = test system: CCRF-CEM
[39] = test system: HL-60
[40] = test system: RXF 393
[41] = test system: Malme-3M
[42] = test system: MDA-MB-231
[43] = test system: Hs-578T
[44] = test system: MDA-MB-435
[45] = test system: U-251
[46] = test system: SW-620
[47] = test system: UACC-257
[48] = test system: 786-0
[49] = test system: SR
[50] = test system: MDA-N
[51] = test system: EKVX
[52] = test system: K562
[53] = test system: OVCAR-5
[54] = test system: SK-MEL-28
[55] = test system: LOX IMVI
[56] = test system: HCC 2998
[57] = test system: OVCAR-3
[58] = test system: HOP-62

## CC(NC(=O)c1ccccc1)NC(=O)C(C)C(=O)Nc1ccccc1 (stereo unspecified)
[1]
  GI50: > 100 µM (inactive)
[2]
  GI50: > 100 µM (inactive)
[3]
  GI50: 89.5 µM (inactive)
[4]
  GI50: > 100 µM (inactive)
[5]
  GI50: > 100 µM (inactive)
[6]
  GI50: > 100 µM (inactive)
[7]
  GI50: 27.4 µM (inactive)
[8]
  GI50: > 100 µM (inactive)
[9]
  GI50: > 100 µM (inactive)
[10]
  GI50: > 100 µM (inactive)
[11]
  GI50: 49.1 µM (inactive)
[12]
  GI50: > 100 µM (inactive)
[13]
  GI50: > 100 µM (inactive)
[14]
  GI50: > 100 µM (inactive)
[15]
  GI50: > 100 µM (inactive)
[16]
  GI50: > 100 µM (inactive)
[17]
  GI50: > 100 µM (inactive)
[18]
  GI50: > 100 µM (inactive)
[19]
  GI50: > 100 µM (inactive)
[20]
  GI50: > 100 µM
[21]
  GI50: > 100 µM (inactive)
[22]
  GI50: > 100 µM (inactive)
[23]
  GI50: 62.2 µM (inactive)
[24]
  GI50: > 100 µM (inactive)
[25]
  GI50: > 100 µM (inactive)
[26]
  GI50: > 100 µM (inactive)
[27]
  GI50: > 100 µM (inactive)
[28]
  GI50: > 100 µM (inactive)
[29]
  GI50: > 100 µM (inactive)
[30]
  GI50: > 100 µM (inactive)
[31]
  GI50: 75.2 µM (inactive)
[32]
  GI50: > 100 µM (inactive)
[33]
  GI50: 33.3 µM (inactive)
[34]
  GI50: > 100 µM (inactive)
[35]
  GI50: 94.6 µM (inactive)
[36]
  GI50: > 100 µM (inactive)
[37]
  GI50: > 100 µM (inactive)
[38]
  GI50: > 100 µM (inactive)
[39]
  GI50: > 100 µM (inactive)
[40]
  GI50: 89.1 µM (inactive)
[41]
  GI50: > 100 µM (inactive)
[42]
  GI50: > 100 µM (inactive)
[43]
  GI50: 32.2 µM (inactive)
[44]
  GI50: > 100 µM (inactive)
[45]
  GI50: > 100 µM (inactive)
[46]
  GI50: > 100 µM (inactive)
[47]
  GI50: > 100 µM (inactive)
[48]
  GI50: > 100 µM (inactive)
[49]
  GI50: > 100 µM (inactive)
[50]
  GI50: > 100 µM (inactive)
[51]
  GI50: > 100 µM (inactive)
[52]
  GI50: > 100 µM (inactive)
[53]
  GI50: > 100 µM (inactive)

## Nc1nc(=O)c2cc(NCc3ccc(C(=O)NC(CCC(=O)O)C(=O)O)cc3)ccc2[nH]1 (stereo unspecified)
[54]
  GI50: > 100 µM (inactive)
[55]
  GI50: 14.1 µM (inactive)
[1]
  GI50: > 100 µM (inactive)
[2]
  GI50: 85.5 µM (inactive)
[3]
  GI50: > 100 µM (inactive)
[4]
  GI50: > 100 µM (inactive)
[5]
  GI50: 4.31 µM (inactive)
[6]
  GI50: > 100 µM (inactive)
[7]
  GI50: > 100 µM (inactive)
[56]
  GI50: 39.8 µM (inactive)
[8]
  GI50: > 100 µM (inactive)
[9]
  GI50: > 100 µM (inactive)
[10]
  GI50: > 100 µM (inactive)
[11]
  GI50: > 100 µM (inactive)
[12]
  GI50: > 100 µM (inactive)
[13]
  GI50: 80.7 µM (inactive)
[14]
  GI50: 6.65 µM (inactive)
[15]
  GI50: > 100 µM (inactive)
[16]
  GI50: > 100 µM (inactive)
[17]
  GI50: 15.1 µM (inactive)
[18]
  GI50: > 100 µM (inactive)
[19]
  GI50: > 100 µM (inactive)
[20]
  GI50: > 100 µM
[21]
  GI50: > 100 µM (inactive)
[22]
  GI50: > 100 µM (inactive)
[23]
  GI50: 59 µM (inactive)
[24]
  GI50: > 100 µM (inactive)
[25]
  GI50: > 100 µM (inactive)
[26]
  GI50: 50 µM (inactive)
[27]
  GI50: > 100 µM (inactive)
[28]
  GI50: 45.9 µM (inactive)
[29]
  GI50: 61.8 µM (inactive)
[30]
  GI50: 20.8 µM (inactive)
[31]
  GI50: > 100 µM (inactive)
[32]
  GI50: > 100 µM (inactive)
[33]
  GI50: > 100 µM (inactive)
[34]
  GI50: 6.56 µM (inactive)
[35]
  GI50: 68.2 µM (inactive)
[36]
  GI50: > 100 µM (inactive)
[37]
  GI50: 34.4 µM (inactive)
[38]
  GI50: > 100 µM (inactive)
[39]
  GI50: 21.4 µM (inactive)
[40]
  GI50: > 100 µM (inactive)
[41]
  GI50: > 100 µM (inactive)
[42]
  GI50: > 100 µM (inactive)
[43]
  GI50: > 100 µM (inactive)
[44]
  GI50: > 100 µM (inactive)
[57]
  GI50: > 100 µM (inactive)
[45]
  GI50: > 100 µM (inactive)
[46]
  GI50: > 100 µM (inactive)
[47]
  GI50: > 100 µM (inactive)
[48]
  GI50: > 100 µM (inactive)
[49]
  GI50: 23.3 µM (inactive)
[50]
  GI50: > 100 µM (inactive)
[51]
  GI50: > 100 µM (inactive)
[52]
  GI50: > 100 µM (inactive)
[53]
  GI50: > 100 µM (inactive)
[58]
  GI50: > 100 µM (inactive)
